What was measured:
Format in all cases: cell-based
Conditions in all cases: compounds at 50 nM and 500 nM
WEE1 = target: T1, WEE1 (Homo sapiens, UniProt P30291+Q96SW2); experiment: Western blot degradation of WEE1 in hPBMCs (24 h)
T1 construct: The supernatant was aspirated as the extracted total cell protein; endogenous in cells; host or cells: human peripheral blood mononuclear cells (hPBMCs)
Experimental: (§1) Conventional Western blot assay was performed to evaluate the effects of the compounds of the present disclosure on the expression of target proteins in cells. • (1) Cell Seeding and Protein Harvesting: Human peripheral blood mononuclear cells (hPBMCs) at a density of 1×10^6 cells/mL were thawed according to the PBMC Recovery Protocol (Milecell Biotechnologies Inc, Shanghai). The cells were then treated with the compounds of the present disclosure (including the compounds listed in Table 1, and the Examples 1-498 compounds) at concentrations of 50 nM and 500 nM. Controls included a negative control (DMSO) and a positive control (the commercial immunomodulatory drug lenalidomide), both processed following the identical experimental protocol as the compounds of the present disclosure. After 24 hours of compounds treatment, cells were harvested and lysed in RIPA protein lysate containing protease inhibitors on ice for 30 min, followed by centrifugation. The supernatant was aspirated as the extracted total cell protein. The protein concentration of the supernatant was determined using the conventional BCA (Bicinchoninic Acid) assay. • (2) To the collected supernatant, 5×SDS sample loading buffer was added, followed by denaturation at 95 °C for 5 minutes. The denatured samples were then separated by SDS-PAGE electrophoresis on a polyacrylamide gel. Proteins were transferred to a nitrocellulose membrane (0.45 μm NC membrane), blocked with blocking buffer at room temperature for 1 hour, and subjected to antibody incubation and development procedures according to the antibody manufacturer's instructions (Cell Signaling Technology).
(§2) Half-Maximal Degradation Concentration value (the drug concentration required for degrading proteins by 50%, abbreviated as DC50) reads method: comparing the grayscale values of Western blot bands from drug-treated samples with those from blank DMSO-treated controls, and identifying the drug concentration range at which the grayscale value is half that of the DMSO-treated control bands.
(§3) DC50 values can be calculated using ImageJ software to measure grayscale values of Western blot bands from drug-treated samples. The concentration-response curve is fitted to estimate the drug concentration corresponding to half the grayscale value.
(§4) Target protein remaining (%) refers to the percentage of target protein remaining in cells after treatment with protein degrader compounds.
(§5) Calculation method for target protein remaining (%): Use ImageJ software to measure grayscale values of Western blot bands from drug (protein degrader)-treated samples. The grayscale value of drug-treated bands is divided by that of internal control protein bands, and the resulting quotient is normalized to obtain the relative percentage of remaining target protein after protein degrader treatment.
(§6) Target protein degradation rate (%)=1−target protein remaining (%).

IKZF1 = target: T2, IKZF1 (Homo sapiens, UniProt Q13422+Q96SW2); experiment: Western blot degradation of IKZF1 in hPBMCs (24 h)
T2 construct: The supernatant was aspirated as the extracted total cell protein; endogenous in cells; host or cells: human peripheral blood mononuclear cells (hPBMCs)
Experimental: as §1, §2, §3, §4, §5, §6

IKZF2 = target: T3, IKZF2 (Homo sapiens, UniProt Q96SW2+Q9UKS7); experiment: Western blot degradation of IKZF2 in hPBMCs (24 h)
T3 construct: The supernatant was aspirated as the extracted total cell protein; endogenous in cells; host or cells: human peripheral blood mononuclear cells (hPBMCs)
Experimental: as §1, §2, §3, §4, §5, §6

IKZF3 = target: T4, IKZF3 (Homo sapiens, UniProt Q96SW2+Q9UKT9); experiment: Western blot degradation of IKZF3 in hPBMCs (24 h)
T4 construct: The supernatant was aspirated as the extracted total cell protein; endogenous in cells; host or cells: human peripheral blood mononuclear cells (hPBMCs)
Experimental: as §1, §2, §3, §4, §5, §6

CK1α = target: T5, CK1α (Homo sapiens, UniProt P48729+Q96SW2); experiment: Western blot degradation of CK1α in hPBMCs (24 h)
T5 construct: The supernatant was aspirated as the extracted total cell protein; endogenous in cells; host or cells: human peripheral blood mononuclear cells (hPBMCs)
Experimental: as §1, §2, §3, §4, §5, §6

GSPT1 = target: T6, GSPT1 (Homo sapiens, UniProt P15170+Q96SW2); experiment: Western blot degradation of GSPT1 in hPBMCs (24 h)
T6 construct: The supernatant was aspirated as the extracted total cell protein; endogenous in cells; host or cells: human peripheral blood mononuclear cells (hPBMCs)
Experimental: as §1, §2, §3, §4, §5, §6

T2 sequence (Q13422 whole entry): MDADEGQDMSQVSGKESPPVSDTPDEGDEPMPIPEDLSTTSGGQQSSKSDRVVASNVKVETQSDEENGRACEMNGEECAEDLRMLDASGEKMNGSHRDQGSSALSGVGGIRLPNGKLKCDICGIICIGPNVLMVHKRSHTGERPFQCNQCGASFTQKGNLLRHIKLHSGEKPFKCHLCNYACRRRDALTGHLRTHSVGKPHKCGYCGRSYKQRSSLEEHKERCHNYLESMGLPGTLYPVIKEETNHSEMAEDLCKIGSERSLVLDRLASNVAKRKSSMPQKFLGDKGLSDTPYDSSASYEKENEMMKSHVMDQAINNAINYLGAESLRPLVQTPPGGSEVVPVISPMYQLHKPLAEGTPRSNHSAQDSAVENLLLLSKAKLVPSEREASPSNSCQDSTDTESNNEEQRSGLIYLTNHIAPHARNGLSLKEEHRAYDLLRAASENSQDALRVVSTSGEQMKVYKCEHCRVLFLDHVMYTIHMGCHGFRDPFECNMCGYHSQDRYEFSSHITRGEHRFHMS
T2 sequence (Q96SW2 whole entry): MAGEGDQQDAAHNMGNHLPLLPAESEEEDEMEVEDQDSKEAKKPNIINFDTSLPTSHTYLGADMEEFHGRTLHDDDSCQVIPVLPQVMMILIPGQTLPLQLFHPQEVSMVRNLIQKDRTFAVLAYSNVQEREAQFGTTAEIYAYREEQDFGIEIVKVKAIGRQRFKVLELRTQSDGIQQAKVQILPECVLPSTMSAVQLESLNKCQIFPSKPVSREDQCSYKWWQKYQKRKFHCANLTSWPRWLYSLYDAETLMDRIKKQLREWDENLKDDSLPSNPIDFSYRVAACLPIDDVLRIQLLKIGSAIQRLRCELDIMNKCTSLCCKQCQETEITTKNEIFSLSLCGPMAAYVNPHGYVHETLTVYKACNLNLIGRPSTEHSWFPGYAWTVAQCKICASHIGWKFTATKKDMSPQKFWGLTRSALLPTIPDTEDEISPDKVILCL
T2 sequence (Q16531 whole entry partner): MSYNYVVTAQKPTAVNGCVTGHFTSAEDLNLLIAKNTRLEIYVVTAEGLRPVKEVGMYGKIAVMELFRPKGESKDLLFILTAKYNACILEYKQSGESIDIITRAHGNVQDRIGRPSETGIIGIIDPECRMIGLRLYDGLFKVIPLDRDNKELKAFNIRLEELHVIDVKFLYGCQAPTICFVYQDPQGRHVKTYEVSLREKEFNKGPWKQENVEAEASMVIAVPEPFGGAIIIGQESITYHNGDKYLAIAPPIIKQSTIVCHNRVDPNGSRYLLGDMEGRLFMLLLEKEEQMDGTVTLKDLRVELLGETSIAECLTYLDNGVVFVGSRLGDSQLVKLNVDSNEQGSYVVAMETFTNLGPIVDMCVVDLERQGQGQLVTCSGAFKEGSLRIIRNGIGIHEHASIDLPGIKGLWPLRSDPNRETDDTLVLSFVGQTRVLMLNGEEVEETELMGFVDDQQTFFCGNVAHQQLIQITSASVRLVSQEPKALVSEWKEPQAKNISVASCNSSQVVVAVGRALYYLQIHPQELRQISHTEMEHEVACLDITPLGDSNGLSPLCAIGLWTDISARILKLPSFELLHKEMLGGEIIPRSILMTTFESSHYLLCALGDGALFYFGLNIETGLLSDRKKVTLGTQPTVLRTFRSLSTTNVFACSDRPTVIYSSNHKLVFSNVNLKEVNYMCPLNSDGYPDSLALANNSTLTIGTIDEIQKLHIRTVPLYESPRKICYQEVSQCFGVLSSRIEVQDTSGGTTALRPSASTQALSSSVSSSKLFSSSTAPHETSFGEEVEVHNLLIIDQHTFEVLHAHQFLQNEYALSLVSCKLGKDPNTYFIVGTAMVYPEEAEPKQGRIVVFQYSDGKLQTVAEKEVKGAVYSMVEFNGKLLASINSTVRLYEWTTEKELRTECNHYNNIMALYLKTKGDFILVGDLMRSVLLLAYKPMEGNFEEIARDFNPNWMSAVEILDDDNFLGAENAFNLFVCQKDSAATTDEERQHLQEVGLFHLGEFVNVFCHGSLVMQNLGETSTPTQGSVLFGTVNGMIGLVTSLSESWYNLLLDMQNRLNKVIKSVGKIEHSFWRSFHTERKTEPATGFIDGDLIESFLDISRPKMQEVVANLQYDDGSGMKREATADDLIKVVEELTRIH
T6 sequence (P15170 whole entry): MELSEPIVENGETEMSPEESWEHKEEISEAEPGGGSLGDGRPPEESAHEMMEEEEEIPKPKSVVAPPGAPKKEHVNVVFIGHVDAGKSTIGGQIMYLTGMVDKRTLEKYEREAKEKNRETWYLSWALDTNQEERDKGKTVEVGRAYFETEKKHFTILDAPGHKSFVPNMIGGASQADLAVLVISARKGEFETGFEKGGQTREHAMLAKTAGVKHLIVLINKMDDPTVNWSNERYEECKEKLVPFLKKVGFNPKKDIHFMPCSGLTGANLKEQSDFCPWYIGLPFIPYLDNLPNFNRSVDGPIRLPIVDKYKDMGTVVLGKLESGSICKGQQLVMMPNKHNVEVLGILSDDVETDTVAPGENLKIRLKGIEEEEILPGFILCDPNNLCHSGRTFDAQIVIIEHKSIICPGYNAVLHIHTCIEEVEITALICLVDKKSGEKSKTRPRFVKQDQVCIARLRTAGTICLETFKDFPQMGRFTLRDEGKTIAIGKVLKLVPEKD
T6 sequence (Q96SW2 whole entry): as the sequence (Q96SW2 whole entry) above
T6 sequence (Q16531 whole entry partner): as the sequence (Q16531 whole entry partner) above
T1 sequence (P30291 whole entry): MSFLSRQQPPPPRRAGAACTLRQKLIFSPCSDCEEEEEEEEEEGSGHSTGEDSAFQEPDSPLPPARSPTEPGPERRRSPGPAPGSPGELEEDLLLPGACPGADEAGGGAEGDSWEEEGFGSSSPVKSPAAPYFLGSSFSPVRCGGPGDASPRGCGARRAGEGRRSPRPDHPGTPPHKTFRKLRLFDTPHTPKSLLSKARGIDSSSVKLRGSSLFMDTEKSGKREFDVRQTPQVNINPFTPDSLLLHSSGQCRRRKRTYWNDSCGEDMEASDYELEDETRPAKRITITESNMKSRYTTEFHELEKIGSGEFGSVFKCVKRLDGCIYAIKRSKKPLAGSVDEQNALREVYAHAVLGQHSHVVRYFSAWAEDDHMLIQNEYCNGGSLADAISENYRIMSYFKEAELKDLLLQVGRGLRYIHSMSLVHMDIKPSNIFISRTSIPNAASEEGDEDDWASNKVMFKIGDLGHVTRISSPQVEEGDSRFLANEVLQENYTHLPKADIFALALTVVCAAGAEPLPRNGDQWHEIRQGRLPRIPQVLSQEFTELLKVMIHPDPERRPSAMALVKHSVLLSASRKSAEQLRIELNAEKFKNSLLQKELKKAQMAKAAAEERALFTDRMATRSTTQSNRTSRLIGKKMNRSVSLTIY
T1 sequence (Q96SW2 whole entry): as the sequence (Q96SW2 whole entry) above
T1 sequence (Q16531 whole entry partner): as the sequence (Q16531 whole entry partner) above
T5 sequence (P48729 whole entry): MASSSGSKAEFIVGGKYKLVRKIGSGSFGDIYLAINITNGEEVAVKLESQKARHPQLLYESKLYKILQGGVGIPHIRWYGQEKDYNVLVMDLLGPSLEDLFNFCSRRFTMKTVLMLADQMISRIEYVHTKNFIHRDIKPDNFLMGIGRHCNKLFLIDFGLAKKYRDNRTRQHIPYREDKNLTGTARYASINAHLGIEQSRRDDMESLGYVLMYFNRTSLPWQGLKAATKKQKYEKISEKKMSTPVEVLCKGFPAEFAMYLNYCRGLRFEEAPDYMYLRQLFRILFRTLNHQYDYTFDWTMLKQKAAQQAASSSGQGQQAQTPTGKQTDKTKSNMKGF
T5 sequence (Q96SW2 whole entry): as the sequence (Q96SW2 whole entry) above
T5 sequence (Q16531 whole entry partner): as the sequence (Q16531 whole entry partner) above
T4 sequence (Q9UKT9 whole entry): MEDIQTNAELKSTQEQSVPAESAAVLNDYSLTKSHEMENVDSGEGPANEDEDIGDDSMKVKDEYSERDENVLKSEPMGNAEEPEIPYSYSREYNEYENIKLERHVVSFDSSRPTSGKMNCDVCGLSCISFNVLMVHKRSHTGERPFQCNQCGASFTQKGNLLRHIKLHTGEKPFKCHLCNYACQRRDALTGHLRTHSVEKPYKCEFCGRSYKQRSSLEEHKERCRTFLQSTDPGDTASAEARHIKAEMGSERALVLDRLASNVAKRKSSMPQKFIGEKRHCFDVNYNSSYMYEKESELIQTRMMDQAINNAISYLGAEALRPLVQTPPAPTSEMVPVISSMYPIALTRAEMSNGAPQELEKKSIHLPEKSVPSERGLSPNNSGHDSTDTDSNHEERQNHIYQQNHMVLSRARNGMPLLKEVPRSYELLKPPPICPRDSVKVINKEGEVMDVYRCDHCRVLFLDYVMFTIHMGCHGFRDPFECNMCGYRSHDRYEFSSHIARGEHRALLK
T4 sequence (Q96SW2 whole entry): as the sequence (Q96SW2 whole entry) above
T4 sequence (Q16531 whole entry partner): as the sequence (Q16531 whole entry partner) above

Row | SMILES | WEE1 substrate protein remaining % (WEE1) | IKZF1 substrate protein remaining % (IKZF1) | IKZF2 substrate protein remaining % (IKZF2) | IKZF3 substrate protein remaining % (IKZF3) | CK1α substrate protein remaining % (CK1α) | GSPT1 substrate protein remaining % (GSPT1)
1 | Cc1cc(N2CCN(Cc3ccc4c(c3)CN(N3CCC(=O)NC3=O)C4=O)CC2)cs1 [GT-05087, 1-(5-((4-(5-methylthiophen-3-yl)piperazin-1-yl)methyl)-1-oxoisoindolin-2-yl)dihydropyrimidine-2,4(1H,3H)-dione] | B (80%< substrate protein remaining % ≤100%) | B (80%< substrate protein remaining % ≤100%) | B (80%< substrate protein remaining % ≤100%) | B (80%< substrate protein remaining % ≤100%) | B (80%< substrate protein remaining % ≤100%) | A (0% ≤ substrate protein remaining % ≤80%)
2 | Cc1cccc(N2CCN(Cc3ccc4c(c3)CN(N3CCC(=O)NC3=O)C4=O)CC2)n1 [GT-05125, 1-(5-((4-(6-methylpyridin-2-yl)piperazin-1-yl)methyl)-1-oxoisoindolin-2-yl)dihydropyrimidine-2,4(1H,3H)-dione] | A (0% ≤ substrate protein remaining % ≤80%) | A (0% ≤ substrate protein remaining % ≤80%) | B (80%< substrate protein remaining % ≤100%) | A (0% ≤ substrate protein remaining % ≤80%) | A (0% ≤ substrate protein remaining % ≤80%) | A (0% ≤ substrate protein remaining % ≤80%)
3 | O=C1CCN(N2Cc3cc(CN4CCN(c5cc(Cl)ccn5)CC4)ccc3C2=O)C(=O)N1 [GT-05128, 1-(5-((4-(4-chloropyridin-2-yl)piperazin-1-yl)methyl)-1-oxoisoindolin-2-yl)dihydropyrimidine-2,4(1H,3H)-dione] | A (0% ≤ substrate protein remaining % ≤80%) | A (0% ≤ substrate protein remaining % ≤80%) | A (0% ≤ substrate protein remaining % ≤80%) | A (0% ≤ substrate protein remaining % ≤80%) | A (0% ≤ substrate protein remaining % ≤80%) | A (0% ≤ substrate protein remaining % ≤80%)
4 | O=C1CCN(N2Cc3cc(CN4CCN(c5ncccc5F)CC4)ccc3C2=O)C(=O)N1 [GT-05129, 1-(5-((4-(3-fluoropyridin-2-yl)piperazin-1-yl)methyl)-1-oxoisoindolin-2-yl)dihydropyrimidine-2,4(1H,3H)-dione] | A (0% ≤ substrate protein remaining % ≤80%) | A (0% ≤ substrate protein remaining % ≤80%) | A (0% ≤ substrate protein remaining % ≤80%) | A (0% ≤ substrate protein remaining % ≤80%) | A (0% ≤ substrate protein remaining % ≤80%) | A (0% ≤ substrate protein remaining % ≤80%)
5 | O=C1CCN(N2Cc3cc(CN4CCN(c5cccc(F)n5)CC4)ccc3C2=O)C(=O)N1 [GT-05130, 1-(5-((4-(6-fluoropyridin-2-yl)piperazin-1-yl)methyl)-1-oxoisoindolin-2-yl)dihydropyrimidine-2,4(1H,3H)-dione] | A (0% ≤ substrate protein remaining % ≤80%) | A (0% ≤ substrate protein remaining % ≤80%) | A (0% ≤ substrate protein remaining % ≤80%) | A (0% ≤ substrate protein remaining % ≤80%) | A (0% ≤ substrate protein remaining % ≤80%) | A (0% ≤ substrate protein remaining % ≤80%)
6 | O=C1CCN(N2Cc3cc(CN4CCN(c5ccc(F)cn5)CC4)ccc3C2=O)C(=O)N1 [GT-05131, 1-(5-((4-(5-fluoropyridin-2-yl)piperazin-1-yl)methyl)-1-oxoisoindolin-2-yl)dihydropyrimidine-2,4(1H,3H)-dione] | A (0% ≤ substrate protein remaining % ≤80%) | A (0% ≤ substrate protein remaining % ≤80%) | A (0% ≤ substrate protein remaining % ≤80%) | A (0% ≤ substrate protein remaining % ≤80%) | A (0% ≤ substrate protein remaining % ≤80%) | A (0% ≤ substrate protein remaining % ≤80%)
7 | O=C1CCN(N2Cc3cc(CN4C5CC4CN(c4cccc(Cl)c4Cl)C5)ccc3C2=O)C(=O)N1 [GT-05162, 1-(5-((3-(2,3-dichlorophenyl)-3,6-diazabicyclo[3.1.1]heptan-6-yl)methyl)-1-oxoisoindolin-2-yl)dihydropyrimidine-2,4(1H,3H)-dione] | B (80%< substrate protein remaining % ≤100%) | B (80%< substrate protein remaining % ≤100%) | B (80%< substrate protein remaining % ≤100%) | A (0% ≤ substrate protein remaining % ≤80%) | B (80%< substrate protein remaining % ≤100%) | A (0% ≤ substrate protein remaining % ≤80%)
8 | O=C1CCN(N2C(=O)c3ccc(CN4CCC(N(c5ccccc5)c5ccccc5)CC4)cc3C2=O)C(=O)N1 [GT-05177, 2-(2,4-dioxotetrahydropyrimidin-1(2H)-yl)-5-((4-(diphenylamino)piperidin-1-yl)methyl)isoindoline-1,3-dione] | B (80%< substrate protein remaining % ≤100%) | B (80%< substrate protein remaining % ≤100%) | B (80%< substrate protein remaining % ≤100%) | B (80%< substrate protein remaining % ≤100%) | B (80%< substrate protein remaining % ≤100%) | A (0% ≤ substrate protein remaining % ≤80%)
9 | O=C1CCN(N2C(=O)c3ccc(CN4CCC(Nc5ccccc5-c5ccc(Cl)cc5)CC4)cc3C2=O)C(=O)N1 [GT-05179, 5-((4-((4′-chloro-[1,1′-biphenyl]-2-yl)amino)piperidin-1-yl)methyl)-2-(2,4-dioxotetrahydropyrimidin-1(2H)-yl)isoindoline-1,3-dione] | A (0% ≤ substrate protein remaining % ≤80%) | B (80%< substrate protein remaining % ≤100%) | B (80%< substrate protein remaining % ≤100%) | B (80%< substrate protein remaining % ≤100%) | B (80%< substrate protein remaining % ≤100%) | B (80%< substrate protein remaining % ≤100%)
10 | CC1(C)CCC(CN2CCN(Cc3ccc4c(c3)C(=O)N(N3CCC(=O)NC3=O)C4=O)CC2)=C(c2ccc(Cl)cc2)C1 [GT-05180, 5-((4-((4′-chloro-5,5-dimethyl-3,4,5,6-tetrahydro-[1,1′-biphenyl]-2-yl)methyl)piperazin-1-yl)methyl)-2-(2,4-dioxotetrahydropyrimidin-1(2H)-yl)isoindoline-1,3-dione] | A (0% ≤ substrate protein remaining % ≤80%) | B (80%< substrate protein remaining % ≤100%) | B (80%< substrate protein remaining % ≤100%) | B (80%< substrate protein remaining % ≤100%) | B (80%< substrate protein remaining % ≤100%) | B (80%< substrate protein remaining % ≤100%)
